Reference: patent US20250214960A1, “COMPOUNDS HAVING ACTIVITY OF DEGRADING GSPT1 AND APPLICATION THEREOF” (SHANGHAI MEIZER PHARMACEUTICALS CO., LTD., priority 2021, published 2025)
Like-named read-outs stand apart in the source and are kept apart here.

Key:
[1] = molecular target: T1, GSPT1 protein (Homo sapiens, UniProt P15170+Q96SW2); assay: Western blot detection of degradation activity of GSPT1 protein in Jeko-1 cells; format: cell-based; details: JeKo-1, 24 h, read-out: GSPT1 degradation rate (%)
T1 construct: endogenous in cells; host or cells: Jeko-1
T1 sequence (P15170 whole entry): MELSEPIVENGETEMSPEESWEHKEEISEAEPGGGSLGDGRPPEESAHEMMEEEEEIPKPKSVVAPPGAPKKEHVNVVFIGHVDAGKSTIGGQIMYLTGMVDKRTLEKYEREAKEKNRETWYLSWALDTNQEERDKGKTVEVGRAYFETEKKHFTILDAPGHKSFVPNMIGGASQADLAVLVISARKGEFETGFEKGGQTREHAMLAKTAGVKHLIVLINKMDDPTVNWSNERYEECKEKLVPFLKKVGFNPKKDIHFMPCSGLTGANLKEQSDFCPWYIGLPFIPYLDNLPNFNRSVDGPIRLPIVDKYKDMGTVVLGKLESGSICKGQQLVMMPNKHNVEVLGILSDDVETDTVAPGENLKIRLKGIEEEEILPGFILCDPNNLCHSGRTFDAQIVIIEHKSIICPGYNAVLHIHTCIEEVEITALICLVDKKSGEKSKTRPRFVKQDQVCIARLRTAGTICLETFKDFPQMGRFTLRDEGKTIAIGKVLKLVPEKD
T1 sequence (Q96SW2 whole entry): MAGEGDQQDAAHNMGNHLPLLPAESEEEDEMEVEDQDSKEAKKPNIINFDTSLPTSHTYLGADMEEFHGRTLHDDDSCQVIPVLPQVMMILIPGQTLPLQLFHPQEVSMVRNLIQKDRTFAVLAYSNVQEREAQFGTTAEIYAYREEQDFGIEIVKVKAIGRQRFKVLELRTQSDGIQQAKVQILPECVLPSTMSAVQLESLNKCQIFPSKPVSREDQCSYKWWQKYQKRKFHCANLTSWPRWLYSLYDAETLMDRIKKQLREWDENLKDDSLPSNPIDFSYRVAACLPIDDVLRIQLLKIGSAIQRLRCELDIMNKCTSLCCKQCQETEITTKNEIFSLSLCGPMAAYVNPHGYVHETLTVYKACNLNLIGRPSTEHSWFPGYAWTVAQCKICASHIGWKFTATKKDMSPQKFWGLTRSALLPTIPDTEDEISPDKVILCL
T1 sequence (Q16531 whole entry partner): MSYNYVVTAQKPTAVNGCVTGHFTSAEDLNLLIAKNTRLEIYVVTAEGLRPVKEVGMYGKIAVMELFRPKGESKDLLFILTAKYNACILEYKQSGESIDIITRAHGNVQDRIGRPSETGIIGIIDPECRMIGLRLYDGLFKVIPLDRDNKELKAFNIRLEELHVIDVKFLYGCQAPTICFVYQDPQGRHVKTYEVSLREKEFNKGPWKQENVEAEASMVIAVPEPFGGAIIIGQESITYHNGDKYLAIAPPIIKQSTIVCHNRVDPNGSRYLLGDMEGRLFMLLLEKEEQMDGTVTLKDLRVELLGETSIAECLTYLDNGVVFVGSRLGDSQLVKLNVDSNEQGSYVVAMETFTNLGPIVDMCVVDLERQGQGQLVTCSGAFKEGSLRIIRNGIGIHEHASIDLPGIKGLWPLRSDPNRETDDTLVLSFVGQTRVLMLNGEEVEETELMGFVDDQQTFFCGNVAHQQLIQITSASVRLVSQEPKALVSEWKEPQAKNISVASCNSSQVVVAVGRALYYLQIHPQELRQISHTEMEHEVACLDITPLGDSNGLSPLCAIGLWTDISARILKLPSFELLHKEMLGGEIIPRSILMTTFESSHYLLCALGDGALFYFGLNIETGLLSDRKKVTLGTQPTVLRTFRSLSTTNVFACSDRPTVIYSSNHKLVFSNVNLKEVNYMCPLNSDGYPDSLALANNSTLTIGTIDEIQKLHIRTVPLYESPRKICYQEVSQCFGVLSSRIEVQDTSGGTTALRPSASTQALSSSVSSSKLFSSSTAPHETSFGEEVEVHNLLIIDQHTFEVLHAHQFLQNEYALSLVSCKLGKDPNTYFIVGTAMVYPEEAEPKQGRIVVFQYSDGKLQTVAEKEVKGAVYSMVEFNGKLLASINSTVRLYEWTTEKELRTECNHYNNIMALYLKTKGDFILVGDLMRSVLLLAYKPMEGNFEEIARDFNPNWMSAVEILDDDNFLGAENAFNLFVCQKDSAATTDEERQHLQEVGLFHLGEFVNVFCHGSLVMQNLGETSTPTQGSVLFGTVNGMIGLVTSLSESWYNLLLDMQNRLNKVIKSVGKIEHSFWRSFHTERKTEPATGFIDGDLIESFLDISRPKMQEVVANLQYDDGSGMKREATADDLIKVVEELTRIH
Summary of the method: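 Jeko-1 cells in RPMI1640 with 20% FBS treated with compound or DMSO for 24 h at 37° C. GSPT1 detected in lysates by Western blot with GAPDH as internal reference. Band intensities quantified by gray-level analysis to calculate GSPT1 degradation rate.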

[2] = test system: HL-60 cells; assay: CTG method, inhibition of HL-60 cell proliferation; format: cell-based; details: Homo sapiens; HL-60, 72 hours; read-out: Cellular proliferation inhibition IC50
Method: (§1) Test Example 2: CTG Method for Detecting the Inhibitory Effect of Compounds of Formula on the Proliferation of HNT 34 or HL-60 Cells
(§2) HNT-34 or HL-60 cells were taken and cultured in RPMI1640 medium containing 20% fetal bovine serum. The cells were inoculated on a 96 well plate, with 1×10^4 cells per well, and incubated at 37° C. in a […] incubator. After adding the test compound, it was incubated for 72 hours. Then an appropriate amount of CTG reagent was added, the luminescence value was measured, and the inhibition rate was calculated.

[3] = test system: HNT-34 cells; assay: CTG method, inhibition of HNT-34 cell proliferation; format: cell-based; details: HNT-34, 72 hours; read-out: Cellular proliferation inhibition IC50
Method: as §1, §2

[4] = test system: Jeko-1 cells; assay: CCK8 method, inhibition of Jeko-1 cell proliferation; format: cell-based; details: Homo sapiens; Jeko-1, 72 hours; read-out: Cellular proliferation inhibition IC50
Method: Test Example 3: CCK8 Method for Detecting Inhibition of Jeko-1 Cell Proliferation by Compound of Formula
Cell culture: The Jeko-1 cell line (human lymphoma cells) was cultured in RPMI-1640 complete medium containing […] and 1% penicillin streptomycin, and incubated in an incubator at 37° C., 5% CO2, and saturated humidity.
Cell laying: Jeko-1 cells in logarithmic growth phase was taken, centrifuged, and an appropriate amount of complete culture medium was added to obtain a single-cell suspension, a hemocytometer was used for cell counting, and a cell suspension of 1.5×10^5 cells/mL was prepared, the cells were inoculated into a 96 well culture plate at a rate of 100 μL cell suspension per well and incubated in a CO2 cell incubator for 24 hours.
CCK-8 detection: 72 hours after administration, 10% CCK-8 solution was added to each well, placed in a CO2 cell culture incubator, and incubated for 1-4 hours. The absorbance of each well was measured using a microplate reader at 450 nm.
Calculation of cellular proliferation inhibition rate:
Cellular proliferation inhibition rate (%)=[(Ac−As)/(Ac−Ab)]×100% • As: absorbance in experimental wells (including cells, culture medium, CCK-8 solution, and drug solution) • Ac: absorbance in control wells (including cells, culture medium, CCK-8 solution, without drugs) • Ab: absorbance in blank wells (including culture medium, CCK-8 solution, without cells or drugs)

[5] = test system: MV-4-11 subcutaneous transplant tumor; assay: In vivo efficacy in MV-4-11 subcutaneous transplant tumors; parameters: species or system SCID mice; details: tumor volume on the 27th day
Method: Test Example 4: Compound's In Vivo Efficacy in MV-4-11 Subcutaneous Transplant Tumors Experimental method: Human acute monocytic leukemia cell line MV-4-11 was used to construct a subcutaneous transplant tumor model in SCID mice. Grouping: solvent group, reference compound (IV: 2 mg/kg, Day 0-12; IP: 20 mg/kg, Day 13-26) group, 5-17 and 5-22 (IV: 0.5 mg/kg, Day 0-12; IP: 10 mg/kg, Day 13-26), with 5 animals in each group, once a day. The tumor volume on the 27th day was measured and the tumor inhibition rate was calculated. Tumor inhibition rate (%)=[(tumor volume in solvent group−tumor volume in drug group)/tumor volume in solvent group]×100%

[6] = IV 0.5 mg/kg Day 0-12, IP 10 mg/kg Day 13-26, once a day

inhibition at 0.1 µM ([1]; 100 nM, Jeko-1 cells, 24 hours) [%] | inhibition at 10 µM ([1]; 10 μM, Jeko-1 cells, 24 hours) [%] | SMILES | IC50 [2] [nM] | IC50 [3] [nM] | IC50 [4] [nM] | Tumor inhibition rate (%) [5, 6] [%] | inhibition at 0.1 µM [1] [%] | inhibition at 10 µM [1] [%] | Tumor inhibition rate (%) ([5]; IV 2 mg/kg Day 0-12, IP 20 mg/kg Day 13-26, once a day)
94.2 | 95.6 | CC(C)(C)OC(=O)N[C@H](C(=O)NCc1ccc2c(c1)CN(C1CCC(=O)NC1=O)C2=O)c1ccccc1Cl (stereo partly drawn) [Compound 5-17, Tert butyl ((1S)-1-(2-chlorophenyl)-2-((2-(2,6-dioxopyridin-3-yl)-1-oxoisoidoline-5-yl)methyl)amino)-2-oxoethyl) carbamate] | 4.2 | 3.2 | 0.1 | 99.6 |  |  | 
 |  | CC(C)OC(=O)N[C@H](Cc1ccccc1)C(=O)NCc1ccc2c(c1)CN(C1CCC(=O)NC1=O)C2=O (stereo partly drawn) [Compound 5-22, Isopropyl ((2R)-1-((2-(2,6-dioxypiperidin-3-yl)-1-oxoisoindolin-5-yl)methyl)amino)-1-oxo-3-phenylprop-2-yl) carbamate] | 18.6 | 21.3 | 0.6 | 99.8 | 77.7 | 95.7 | 
 |  | O=C1CCC(N2Cc3cc(CNC(=O)C(F)(F)c4ccc(Cl)cc4)ccc3C2=O)C(=O)N1 (stereo not shown) [Reference compound, reference compound] |  |  |  |  |  |  | 28.3
